The source of these data is PubChem BioAssay (NCI).

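The compound was tested at five concentrations on cells cultured in 96-well plates, with a 48-hour exposure period. At the GI50, growth is halved. TGI denotes the concentration required for complete inhibition of growth.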

What all share (experiment): NCI tumour cell line growth inhibition, 48 h
In assay [1] the test system is SR leukemia.
Assay [2] relates to HOP-62 NSCLC.
The test system of assay [3] is MOLT-4 leukemia.
The test system of assay [4] is HOP-92 NSCLC.
Assay [5] has as its system CCRF-CEM leukemia.
In assay [6] the test system is SK-OV-3 ovarian.
For assay [7], the system named is OVCAR-3 ovarian.
Assay [8] concerns HCT-116 colon.
The subject of assay [9] is NCI-H23 lung.
In assay [10] the test system is A498 renal.

`COc1ccc(N=c2ssc3c(=S)ssc23)cc1`: the TGI in assay [1] is 20.1 µM; in assay [2], above 100 µM; in assay [3] it was 26.9 µM; in [4], 70.3 µM; in [5], 28.2 µM; in assay [6], above 100 µM. Besides, the TGI in [7] was 61.7 µM; in assay [8] it was above 100 µM; in assay [9] it was above 100 µM.

As to `C=CCc1cc(OC)c2c(c1)C(O)CC(c1ccccc1)O2` (centres undefined), the TGI in assay [1], in assay [2], in [3], in assay [4], in assay [5] and in assay [6] was above 100 µM each time. For the same compound, the TGI in assay [7], in assay [8] and in assay [9] was above 100 µM in each case.

Take `CCOC(=O)C(C)(c1cn(C)c2ccccc12)c1cn(C)c2ccccc12`: the TGI in [10], in assay [2], in assay [3], in assay [5], in assay [6] and in assay [7] was above 100 µM throughout. Further, the TGI in [8] and in assay [9] was above 100 µM throughout.

Regarding `Clc1cc(Cl)c(OCC#CI)cc1Cl`, the GI50 in [10] was 13.7 µM; in assay [2], 4.08 µM; in [3] it was 2.05 µM; in assay [4] it was 15.1 µM; in assay [5], 2.88 µM; in assay [7], 1.85 µM. In addition, the GI50 in assay [8] is 1.75 µM; in assay [9] it was 12.6 µM. Besides, the TGI in assay [10] was 26.6 µM; in [2], 14.2 µM; in assay [3], 6.11 µM; in assay [4] it was 37.1 µM; in [5], above 100 µM; in assay [7], 3.91 µM. For the same compound, the values for the TGI in assay [8] and in [9] were 3.47 µM and 26.7 µM, respectively.

Regarding `Brc1cccc(C2SCc3nc4ccccc4n32)c1` (centres undefined), the TGI in assay [1] was 57.7 µM; in assay [2], 40.7 µM; in [3] it was above 100 µM; in assay [4], 35.6 µM; in [5], above 100 µM; in assay [6], 65 µM. In addition, the figures for the TGI in [7], in [8] and in assay [9] were 32.6 µM, 29.4 µM and 44.7 µM, respectively.

As to `CCC1CN2CCc3cc(OC)c(OC)cc3C2CC1CC1c2cc(OC)c(OC)cc2CCN1C(=O)C1CCCN1C(=O)OCc1ccccc1` (centres undefined), the TGI in [10] was found to be 29.9 µM; in assay [2], 31.8 µM; in assay [4] it was 22 µM; in assay [7], 30.7 µM; in assay [8], 25.8 µM; in [9], 32.7 µM.

Regarding `C=CCOC1OC(CO[Si](C)(C)C(C)(C)C)C(OCc2ccccc2)C(OCc2ccccc2)C1OCc1ccccc1` (centres undefined), the TGI was above 100 µM in [1]; 48.3 µM in [2]; above 100 µM in [3]; above 100 µM in assay [4]; above 100 µM in assay [5]; above 100 µM in [6]. The values for the TGI in [7], in [8] and in assay [9] were above 100 µM, 65.9 µM and above 100 µM, respectively.

With `CC(=O)OC1CCn2nnc(CO[Si](C)(C)C(C)(C)C)c21` (centres undefined), the TGI in assay [1], in assay [3], in [6], in assay [7], in assay [8] and in assay [9] was above 100 µM throughout.

`CCOC(=O)C(=O)Nc1c(CC)cccc1C(C)C`: the TGI in assay [10], in assay [2], in assay [4], in assay [6], in assay [7] and in assay [8] was above 100 µM each time. Also, the TGI in [9] was above 100 µM.

`Cc1ccc(C2=NOC3=c4ccccc4=CSC3=C2c2ccc([N+](=O)[O-])cc2)cc1`: the GI50 is 10.8 µM in [10]; 13.6 µM in assay [2]; above 100 µM in assay [3]; 18 µM in [4]; 39.3 µM in [5]; 6.91 µM in assay [6]. Also, the GI50 was 10 µM in assay [7], 3.35 µM in assay [8] and 17.8 µM in [9]. Moreover, the TGI was 26.9 µM in assay [10]; 55.8 µM in [2]; above 100 µM in assay [3]; 68.2 µM in [4]; above 100 µM in assay [5]; 49 µM in assay [6]. Further, the TGI in [7] was 41.9 µM; in assay [8], above 100 µM; in assay [9] it was 53.7 µM.

For `O=C1OC(CCCl)(c2ccccc2)CC1CN1CCOCC1` (centres undefined), the TGI is above 100 µM in assay [10]; above 100 µM in assay [2]; 48 µM in [3]; 31.6 µM in [4]; 41.6 µM in [5]; above 100 µM in assay [6]. Further, the TGI came out at 32.1 µM in assay [7] and 23.7 µM in assay [9].

As for `O=C(O)C1(P(=O)(O)O)CC1`, the TGI in assay [10], in [2], in [3], in assay [5], in [6] and in [7] was above 100 µM in each case. In addition, the TGI in [8] and in [9] was above 100 µM throughout.

With `O[C@H]1CO[C@H]2[C@@H]1OC[C@@H]2Oc1ccc(Nc2ccnc(Nc3ccc(O[C@H]4CO[C@H]5[C@@H]4OC[C@@H]5O)c(Cl)c3)n2)cc1Cl`, the GI50 in assay [1] is 2.28 µM; in [2], 1.71 µM; in assay [3] it was 1.72 µM; in assay [4], 1.52 µM; in [5], 0.666 µM; in assay [6], 2.53 µM. Moreover, the GI50 in assay [7] was 1.56 µM; in [8] it was 2.24 µM; in assay [9], 1.49 µM. Further, the TGI worked out at 15.3 µM in [1]; 4.03 µM in assay [2]; 6.04 µM in assay [3]; 3.15 µM in [4]; 5.31 µM in [5]; 10 µM in [6]. Moreover, the TGI in assay [7] was 7.17 µM; in [8], 9.12 µM; in [9], 4.6 µM.

As for `COc1cc2c(c(OC)c1OC)-c1ncc3cc(OC)c(OC)c(OC)c3c1C2`, the GI50 in assay [2] is 35.4 µM; in assay [4], 52.6 µM; in [5] it was above 100 µM; in assay [6], 47.5 µM; in assay [7], 19.1 µM; in assay [8], 33.5 µM. Moreover, the TGI in [2] was 66.5 µM; in assay [4], above 100 µM; in assay [5], above 100 µM; in assay [6], above 100 µM; in [7], 46.3 µM; in [8], above 100 µM.

Take `COc1cc(C(=O)C/C(CCC(=O)Nc2ccccc2[N+](=O)[O-])=N\NC(=O)CC#N)ccc1O`: the TGI in assay [10], in [2], in assay [3], in assay [5], in [6] and in [7] was above 100 µM in each case. In assay [9], this compound returned a TGI above 100 µM.

Take `O=C1c2ccccc2-c2c1c1ccc([N+](=O)[O-])cc1c(=O)n2CCCBr`: the GI50 in assay [1] is 0.2 µM; in [4], above 100 µM; in assay [6], above 100 µM; in assay [7] it was above 100 µM; in assay [8], 3.43 µM; in assay [9], 1.1 µM. The TGI in [1] is above 100 µM; in [4] it was above 100 µM; in assay [6], above 100 µM; in assay [7], above 100 µM; in assay [8] it was above 100 µM; in assay [9] it was 5.76 µM.

Consider `CCOC(=O)C1=C(NC)OC/C1=N\NC(=O)c1ccccc1O`, for which the TGI in [10], in assay [2], in assay [3], in assay [4], in assay [5] and in assay [6] was above 100 µM throughout. For the same compound, the TGI in [7] was 98.5 µM; in assay [8], 58.3 µM; in assay [9], 54.9 µM.

Turning to `C=C1COC(/C=C(\C)CC/C=C(\C)CCl)C1` (centres undefined), the TGI in [10], in assay [2], in [3], in [4], in assay [5] and in assay [6] was above 100 µM throughout. Moreover, the TGI in assay [7], in [8] and in assay [9] was above 100 µM throughout.

For `COc1ccc(C2CC(c3cc(OC)c(OC)c(OC)c3)=NN2C(C)=O)cc1OCC(=O)Nc1nc2ccc(C(F)(F)F)cc2s1` (centres undefined), the GI50 is 2.78 µM in assay [10]; 2.2 µM in [2]; 1.7 µM in assay [4]; 5.75 µM in [6]; 3.76 µM in [9]. Besides, the TGI in [10] was determined as 9.7 µM; in assay [2] it was 5.58 µM; in assay [4], 4.02 µM; in [6], 39.1 µM; in assay [9], 33 µM.

Regarding `C=C1CC[C@@H]2[C@](C)(COC(C)=O)[C@@H](O)CC[C@@]2(C)[C@@H]1COc1ccc2ccc(=O)oc2c1`, the GI50 was 87.4 µM in assay [1]; above 100 µM in [2]; above 100 µM in assay [3]; above 100 µM in assay [4]; above 100 µM in assay [5]; above 100 µM in assay [7]. The GI50 in [8] and in [9] was above 100 µM in each case. In addition, the TGI in [1], in assay [2], in [3], in [4], in assay [5] and in assay [7] was above 100 µM in each case. In addition, the TGI in assay [8] and in [9] was above 100 µM throughout.

`COc1cc2c(cc1OCCCCOc1cc3c(cc1OC)C(=O)N1CCC[C@H]1CN3)N=C[C@@H]1CCCN1C2=O`: the GI50 is 3.36 µM in assay [2]; 0.282 µM in assay [3]; 0.366 µM in assay [4]; 0.243 µM in assay [5]; 7.06 µM in assay [6]; 2.05 µM in assay [7]. The results for the GI50 in [8] and in assay [9] were 2.37 µM and 2.22 µM, respectively. For the same compound, the TGI in [2] is above 100 µM; in [3], above 100 µM; in [4] it was 3.3 µM; in [6], above 100 µM; in assay [7] it was 6.38 µM; in assay [8], above 100 µM. Further, the TGI in assay [9] was 5.8 µM.

Consider `Cn1c2c(cc(S(=O)(=O)c3ccccc3)c1=O)CCc1c-2cnn1-c1ccc(Cl)cc1`, for which the GI50 in [10] is 1.06 µM; in assay [2], 2.93 µM; in assay [3], above 100 µM; in assay [5] it was above 100 µM; in [6], 2.34 µM; in [7], 2.45 µM. The GI50 in [8] was 4.14 µM; in [9], 4.65 µM. Moreover, the TGI was 5.03 µM in [10]; 7.61 µM in assay [2]; above 100 µM in assay [3]; above 100 µM in [5]; 5.24 µM in assay [6]; 5.67 µM in [7]. The TGI in assay [8] and in assay [9] was above 100 µM in each case.

Consider `Cc1c(C#N)c(=O)[nH]c(=O)n1CCN1CCN(C(=O)NCCCCCCNC(=O)N2CCN(CCn3c(C)c(C#N)c(=O)[nH]c3=O)CC2)CC1`, for which the TGI in assay [10], in assay [2], in [3], in assay [4], in assay [5] and in assay [6] was above 100 µM in each case. Besides, the TGI in assay [7], in assay [8] and in assay [9] was above 100 µM throughout.

For `CC(C)CC(CC1=CCC2CC1C2(C)C)C1=C(O)C(C)(C)C(=O)C(C)(C)C1=O` (centres undefined), the GI50 in assay [10] was 0.236 µM; in assay [2], 0.303 µM; in assay [3] it was 0.343 µM; in [4], 0.191 µM; in assay [5] it was 0.353 µM; in assay [6], 0.256 µM. Besides, the GI50 was 0.359 µM in assay [7], 0.376 µM in [8] and 0.321 µM in assay [9]. The TGI in assay [10] was found to be 0.651 µM; in [2] it was 1.14 µM; in assay [3] it was 1.6 µM; in [4] it was 0.499 µM; in assay [5], 3.12 µM; in assay [6] it was 0.733 µM. For the same compound, the figures for the TGI in assay [7], in [8] and in assay [9] were above 100 µM, 1.46 µM and 1.57 µM, respectively.
